pIC50: −log10 of the molar value.
What was measured:
c-Raf-1 = c-Raf-1 (Homo sapiens, UniProt P04049); assay: c-Raf-1 kinase activity biochemical assay (AlphaScreen, biotin-MEK1 phosphorylation)
Method: (§1) Compounds to be tested are diluted in dimethyl sulfoxide to a concentration of 0.1 mM. These are serially diluted 15 μL into 30 μL of dimethyl sulfoxide seven times in 96 well plates for a total of 8 dilution points, and for each dilution point 1 μL is added to a well of an assay plate. […] The reaction is started with addition of 10 μL of 200 μM ATP (i.e. final 100 μM ATP). After incubation of the kinase reaction for 45 minutes at room temperature, 5 μL/well of Stop Solution is added (25 mM Hepes pH 7.5, 100 mM EDTA, 0.01% BSA with donor beads (Streptavidin coated beads, Perkin Elmer), acceptor beads (Protein A coated, Perkin Elmer), and anti phosphor MEK1/2 antibody (CellSignal), each at final concentration 10 μg/mL). The plates are incubated for 3 hours at room temperature and read on Envision reader (Perkin Elmer). […] The signal vs. compound concentration is used to determine the IC50.

B-Raf V600E = B-Raf V600E (Homo sapiens (Human), UniProt P15056, V600E); assay: B-Raf V600E kinase activity biochemical assay (AlphaScreen, biotin-MEK1 phosphorylation); details: for IC50: B-Raf V600E; for Biochemical activity ratio V600E/C: ratio of IC50 B-Raf V600E / c-Raf-1
Chain of B-Raf V600E (P15056 whole entry V600E): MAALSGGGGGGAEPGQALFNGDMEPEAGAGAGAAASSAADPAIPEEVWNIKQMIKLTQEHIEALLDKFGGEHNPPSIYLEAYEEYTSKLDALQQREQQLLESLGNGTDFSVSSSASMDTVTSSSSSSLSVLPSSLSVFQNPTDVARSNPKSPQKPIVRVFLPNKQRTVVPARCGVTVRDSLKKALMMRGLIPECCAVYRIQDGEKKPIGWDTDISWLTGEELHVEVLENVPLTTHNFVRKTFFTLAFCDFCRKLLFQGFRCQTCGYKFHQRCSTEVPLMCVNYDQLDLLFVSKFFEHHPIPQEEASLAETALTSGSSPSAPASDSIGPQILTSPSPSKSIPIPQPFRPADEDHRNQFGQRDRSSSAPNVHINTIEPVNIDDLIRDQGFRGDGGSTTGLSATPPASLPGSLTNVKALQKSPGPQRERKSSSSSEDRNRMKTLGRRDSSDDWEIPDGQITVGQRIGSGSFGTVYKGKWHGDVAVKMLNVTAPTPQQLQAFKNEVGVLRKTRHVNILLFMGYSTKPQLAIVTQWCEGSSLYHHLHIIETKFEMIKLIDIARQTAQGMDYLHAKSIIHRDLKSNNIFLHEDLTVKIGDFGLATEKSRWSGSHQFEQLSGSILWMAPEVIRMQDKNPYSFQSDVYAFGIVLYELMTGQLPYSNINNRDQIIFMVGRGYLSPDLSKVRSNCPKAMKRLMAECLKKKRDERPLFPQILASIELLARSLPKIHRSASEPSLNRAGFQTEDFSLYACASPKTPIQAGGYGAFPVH
Method: as §1

B-Raf [1] = target: B-Raf (Homo sapiens (Human), UniProt P15056); assay: B-Raf kinase activity biochemical assay (AlphaScreen, biotin-MEK1 phosphorylation); details: B-Raf
Chain of B-Raf (Homo sapiens (Human), UniProt P15056) (P15056 whole entry): as the sequence (P15056 whole entry V600E) above, with E600V counted along it
Method: as §1

B-Raf [2] = assay: as above; details: for Biochemical activity ratio B/V600E: ratio of IC50 B-Raf / B-Raf V600E; for Biochemical activity ratio B/C: ratio of IC50 B-Raf / c-Raf-1
Method: as §1

CYP2C19 = CYP2C19 (Homo sapiens (Human), UniProt P33261); assay: CYP enzyme inhibition, fluorescent substrate (CEC); details: read-out: Cyp IC50 2C19; CYP2C19, substrate CEC
Chain of CYP2C19 (P33261 whole entry): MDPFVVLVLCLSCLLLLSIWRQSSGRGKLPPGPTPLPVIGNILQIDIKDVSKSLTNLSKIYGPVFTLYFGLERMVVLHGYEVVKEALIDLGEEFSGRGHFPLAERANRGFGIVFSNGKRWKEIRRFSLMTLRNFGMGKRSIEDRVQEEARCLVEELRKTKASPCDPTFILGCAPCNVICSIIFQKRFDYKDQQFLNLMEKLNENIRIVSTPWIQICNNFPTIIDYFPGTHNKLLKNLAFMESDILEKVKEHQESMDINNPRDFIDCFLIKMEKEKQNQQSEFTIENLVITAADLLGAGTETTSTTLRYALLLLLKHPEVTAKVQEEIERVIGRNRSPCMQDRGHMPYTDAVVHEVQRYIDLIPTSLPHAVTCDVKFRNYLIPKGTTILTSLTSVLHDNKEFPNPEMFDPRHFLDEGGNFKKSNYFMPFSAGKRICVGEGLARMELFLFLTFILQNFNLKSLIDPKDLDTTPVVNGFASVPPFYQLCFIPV
Method: CYP (Cytochrome P450) enzymes are the major drug metabolizing enzymes present in the liver. The inhibition of CYP enzyme activity (IC50) for each of CYP1A2, CYP2C19, CYP2C9, CYP2D6, CYP3A4(BFC) and CYP3A4(BQ) is determined for compounds, where inhibition of metabolism of a known substrate leads to a decrease in the fluorescence of the metabolized product. The fluorescence of the product is monitored as a function of compound concentration.
Compounds are dissolved in dimethyl sulfoxide to a concentration of 100 mM. These are diluted 1 μL into 82 μL of acetonitrile. […] These are then serially diluted 1:1 (160 μL to 160 μL co-factor mix) for a total of 10 points. A 10 μL aliquot of this final mixture is dispensed into 384 well assay plates and incubated for 10 minutes at 37° C. […] Assay plates are incubated at 37° C. […] The signal versus compound concentration is used to determine the IC50. The enzymes and substrates for this assay are obtained from BD Biosciences.

[3] = Relative solubility by turbidity threshold concentration in aqueous buffers (pH 1.5, 4.5, 6.8, 7.4); format: physicochemical; details: for turbidity threshold (L, M, H) 1.4: pH 1.4 [sic] (method: SGF pH 1.5); for turbidity threshold (L, M, H) 4.5: pH 4.5 (SIF); for turbidity threshold (L, M, H) 6.8: pH 6.8 (SIF); for turbidity threshold (L, M, H) 7.4: pH 7.4 (HEPES)
Method: As an indication of relative solubility, the turbidity of compounds in aqueous solutions is assessed. To assess possible compound properties in different physiological compartments, such as stomach, intestine, and blood, a series of aqueous buffers with varying pH is used. Thus each compound is diluted into four different physiologically relevant buffers and solution turbidity is measured by spectrophotometry.
Compounds are dissolved at a concentration of 25 mM in dimethyl sulfoxide, then serially diluted 1:1 into a 96 well plate, diluting 10 times in pure dimethyl sulfoxide, with the final well of each row a dimethyl sulfoxide blank. In an assay plate, 99 μL of appropriate buffer is added to each well, and 1 μL of each sample dilution is added to the buffer, achieving a range of final total concentrations in aqueous solutions having different pH. The buffers used are Simulated Gastric Fluid (SGF-pH 1.5) 0.5M NaCl, pH 1.5; Simulated Intestinal fluid (SIF-pH 4.5 and pH 6.8) 0.05M NaH2PO4, pH 4.5 and 6.8; and Hepes Buffer (HEPES-pH 7.4) 10 mM HEPES, 150 mM NaCl, pH 7.4. Control compounds pyrene, estriol and propranolol HCl are also assessed. Plates are spun and then mixed for 1 minute, and the absorbance is read using a Tecan Safire II to read wavelengths in the visible range (490, 535, and 650 nm) at four locations per well, reflecting the degree of turbidity present. The average optical density for each wavelength in each well is graphed vs. compound concentration, and the concentration at which the curve crosses a threshold O.D. of 0.01 for each wavelength is reported as the endpoint turbidity assay result. The average of the three wavelengths is used to compare turbidity of compounds. Compounds are considered to have low solubility if the threshold concentration is <31.3 μM, moderate solubility if the threshold concentration is 31.3 μM to 250 μM, and high solubility if the threshold concentration is >250 μm.
The following table indicates the relative solubility (L=low, M=moderate, H=high) based on turbidity threshold concentration at each pH for exemplary compounds according to the invention as indicated: […]

Chain of c-Raf-1 (P04049 whole entry, looked up): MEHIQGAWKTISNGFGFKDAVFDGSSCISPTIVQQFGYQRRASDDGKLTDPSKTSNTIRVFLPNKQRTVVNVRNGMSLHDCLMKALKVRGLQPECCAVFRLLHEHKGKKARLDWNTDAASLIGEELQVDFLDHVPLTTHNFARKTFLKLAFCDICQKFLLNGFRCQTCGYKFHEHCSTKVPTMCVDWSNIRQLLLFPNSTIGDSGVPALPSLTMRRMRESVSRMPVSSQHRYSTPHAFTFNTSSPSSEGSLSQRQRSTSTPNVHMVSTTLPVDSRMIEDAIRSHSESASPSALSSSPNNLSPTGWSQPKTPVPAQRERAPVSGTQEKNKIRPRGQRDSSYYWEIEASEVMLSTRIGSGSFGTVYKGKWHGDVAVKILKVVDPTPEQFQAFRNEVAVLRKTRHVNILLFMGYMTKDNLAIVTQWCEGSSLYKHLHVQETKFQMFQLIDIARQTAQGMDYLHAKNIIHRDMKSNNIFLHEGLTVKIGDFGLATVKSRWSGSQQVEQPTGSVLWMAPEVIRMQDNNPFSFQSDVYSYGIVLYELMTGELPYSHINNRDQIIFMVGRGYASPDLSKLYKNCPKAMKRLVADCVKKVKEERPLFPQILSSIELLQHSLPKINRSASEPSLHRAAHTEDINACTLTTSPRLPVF

| Compound | IC50 (c-Raf-1) [µM] | IC50 (B-Raf V600E) [µM] | Biochemical activity ratio V600E/C (B-Raf V600E) | IC50 (B-Raf [1]) [µM] | Biochemical activity ratio B/V600E (B-Raf [2]) | Biochemical activity ratio B/C (B-Raf [2]) | pIC50 (CYP2C19) | turbidity threshold (L, M, H) 1.4 [3] | turbidity threshold (L, M, H) 4.5 [3] | turbidity threshold (L, M, H) 6.8 [3] | turbidity threshold (L, M, H) 7.4 [3] |
| --- | --- | --- | --- | --- | --- | --- | --- | --- | --- | --- | --- |
| O=C(c1c(F)ccc(NS(=O)(=O)c2ccc(C(F)(F)F)cc2)c1F)c1c[nH]c2ncnc(N3CCOCC3)c12 [P-1017, N-[2,4-Difluoro-3-(4-morpholin-4-yl-7H-pyrrolo[2,3-d]pyrimidine-5-carbonyl)-phenyl]-4-trifluoromethyl-benzenesulfonamide] | > 0.1 | > 0.1 | >10 | > 0.1 | 0.1-10 | 0.1-10 | – | – | – | – | – |
| COc1ccc(S(=O)(=O)Nc2ccc(F)c(C(=O)c3c[nH]c4ncnc(OC)c34)c2F)cn1 [P-1018, 6-Methoxy-pyridine-3-sulfonic acid [2,4-difluoro-3-(4-methoxy-7H-pyrrolo[2,3-d]pyrimidine-5-carbonyl)-phenyl]-amide] | > 0.1 | > 0.1 | 0.1-10 | > 0.1 | >10 | >10 | – | – | – | – | – |
| CCc1ccc(S(=O)(=O)Nc2ccc(F)c(C(=O)c3c[nH]c4ncnc(C)c34)c2F)cc1 [P-1019, N-[2,4-Difluoro-3-(4-methyl-7H-pyrrolo[2,3-d]pyrimidine-5-carbonyl)-phenyl]-4-ethyl-benzenesulfonamide] | > 0.1 | > 0.1 | 0.1-10 | > 0.1 | 0.1-10 | 0.1-10 | – | – | – | – | – |
| O=C(c1c(F)ccc(NS(=O)(=O)c2ccc(C(F)(F)F)cc2)c1F)c1c[nH]c2ncnc(OC3CCOCC3)c12 [P-1021, N-{2,4-Difluoro-3-[4-(tetrahydro-pyran-4-yloxy)-7H-pyrrolo[2,3-d]pyrimidine-5-carbonyl]-phenyl}-4-trifluoromethyl-benzenesulfonamide] | < 0.1 | > 0.1 | >10 | > 0.1 | 0.1-10 | >10 | – | – | – | – | – |
| CCCS(=O)(=O)Nc1ccc(F)c(C(=O)c2c[nH]c3ncnc(O)c23)c1F [P-1022, Propane-1-sulfonic acid [2,4-difluoro-3-(4-hydroxy-7H-pyrrolo[2,3-d]pyrimidine-5-carbonyl)-phenyl]-amide] | < 0.1 | > 0.1 | 0.1-10 | > 0.1 | 0.1-10 | 0.1-10 | – | – | – | – | – |
| N#Cc1ncnc2[nH]cc(C(=O)c3c(F)ccc(NS(=O)(=O)c4ccc(C(F)(F)F)cc4)c3F)c12 [P-1023, N-[3-(4-Cyano-7H-pyrrolo[2,3-d]pyrimidine-5-carbonyl)-2,4-difluoro-phenyl]-4-trifluoromethyl-benzenesulfonamide] | > 0.1 | > 0.1 | >10 | > 0.1 | 0.1-10 | 0.1-10 | – | – | – | – | – |
| COc1ccc(S(=O)(=O)Nc2ccc(F)c(C(=O)c3c[nH]c4ncnc(C)c34)c2F)cc1F [P-1036, N-[2,4-Difluoro-3-(4-methyl-7H-pyrrolo[2,3-d]pyrimidine-5-carbonyl)-phenyl]-3-fluoro-4-methoxy-benzenesulfonamide] | < 0.1 | < 0.1 | 0.1-10 | > 0.1 | >10 | >10 | – | – | – | – | – |
| CCCS(=O)(=O)Nc1ccc(F)c(C(=O)c2c[nH]c3nccc(NC4CCOCC4)c23)c1F [P-2013, Propane-1-sulfonic acid {2,4-difluoro-3-[4-(tetrahydro-pyran-4-ylamino)-1H-pyrrolo[2,3-b]pyridine-3-carbonyl]-phenyl}-amide] | < 0.1 | < 0.1 | – | – | – | – | < 5.00 | H (high solubility if the threshold concentration is >250 μm) | H (high solubility if the threshold concentration is >250 μm) | H (high solubility if the threshold concentration is >250 μm) | H (high solubility if the threshold concentration is >250 μm) |
| O=C(c1c(F)ccc(NS(=O)(=O)c2ccc(C(F)(F)F)cc2)c1F)c1c[nH]c2nccc(NC3CCOCC3)c12 [P-2014, N-{2,4-Difluoro-3-[4-(tetrahydro-pyran-4-ylamino)-1H-pyrrolo[2,3-b]pyridine-3-carbonyl]-phenyl}-4-trifluoromethyl-benzenesulfonamide] | < 0.1 | > 0.1 | >10 | > 0.1 | 0.1-10 | 0.1-10 | – | L (low solubility if the threshold concentration is <31.3 μM) | L (low solubility if the threshold concentration is <31.3 μM) | L (low solubility if the threshold concentration is <31.3 μM) | L (low solubility if the threshold concentration is <31.3 μM) |
| CCCS(=O)(=O)Nc1ccc(F)c(C(=O)c2c[nH]c3nccc(C(F)(F)F)c23)c1F [P-2015, Propane-1-sulfonic acid [2,4-difluoro-3-(4-trifluoromethyl-1H-pyrrolo[2,3-b]pyridine-3-carbonyl)-phenyl]-amide] | < 0.1 | – | – | – | – | – | < 5.00 | M (moderate solubility if the threshold concentration is 31.3 μM to 250 μM) | M (moderate solubility if the threshold concentration is 31.3 μM to 250 μM) | M (moderate solubility if the threshold concentration is 31.3 μM to 250 μM) | M (moderate solubility if the threshold concentration is 31.3 μM to 250 μM) |
| O=C(c1c(F)ccc(NS(=O)(=O)c2ccc(C(F)(F)F)cc2)c1F)c1c[nH]c2nccc(C(F)(F)F)c12 [P-2016, N-[2,4-Difluoro-3-(4-trifluoromethyl-1H-pyrrolo[2,3-b]pyridine-3-carbonyl)-phenyl]-4-trifluoromethyl-benzenesulfonamide] | < 0.1 | > 0.1 | >10 | > 0.1 | 0.1-10 | 0.1-10 | – | L (low solubility if the threshold concentration is <31.3 μM) | L (low solubility if the threshold concentration is <31.3 μM) | L (low solubility if the threshold concentration is <31.3 μM) | M (moderate solubility if the threshold concentration is 31.3 μM to 250 μM) |

Source: patent US9617267B2, “Compounds and methods for kinase modulation, and indications therefor” (Plexxikon Inc., priority 2009, dated 2017)
